Experimental data published in the supplement of paper PMC7285287.
Where a name gives a salt, the structure may show the parent alone. ± gives the standard deviation of the averaged measurements.

System: Candida albicans SNY425 biofilm
Assay: biofilm OD600 relative to DMSO control (fraction of DMSO control); higher = more biofilm (less inhibition)
Description: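 C. albicans SNY425 biofilm optical density assays (OD600 of the adhered biofilm after media removal) in RPMI-MOPS pH 7.0 at 37 °C with shaking. Groups of 4 to 8 wells per compound are averaged and normalised to the average of DMSO loading control wells. Adherence inhibition was tested at 10 and 40 µM, sustained inhibition and disruption at 40 µM, and the MBIC series at 200 to 0.78 µM.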

[1] = 10 µM, assay detail: adherence inhibition, 96-well, compound during 90 min adherence only
[2] = 40 µM, assay detail: adherence inhibition, 96-well, compound during 90 min adherence only
[3] = 40 µM, assay detail: disruption, 384-well, compound added to 24 h mature biofilm for further 24 h
[4] = 40 µM, assay detail: sustained inhibition, 384-well, compound during adherence and 24 h growth
[5] = 0.78 µM, assay detail: sustained inhibition (MBIC series), 384-well, compound during adherence and 24 h growth
[6] = 3.125 µM, assay detail: sustained inhibition (MBIC series), 384-well, compound during adherence and 24 h growth
[7] = 12.5 µM, assay detail: sustained inhibition (MBIC series), 384-well, compound during adherence and 24 h growth
[8] = 50 µM, assay detail: sustained inhibition (MBIC series), 384-well, compound during adherence and 24 h growth
[9] = 200 µM, assay detail: sustained inhibition (MBIC series), 384-well, compound during adherence and 24 h growth

Row | Compound | biofilm OD600 [1] | biofilm OD600 [2] | biofilm OD600 [3] | biofilm OD600 [4] | biofilm OD600 [5] | biofilm OD600 [6] | biofilm OD600 [7] | biofilm OD600 [8] | biofilm OD600 [9]
1 | C=CC1=C(C)c2cc3[nH]c(cc4nc(cc5[nH]c(cc1n2)c(C)c5CCC(=O)O)C(CCC(=O)O)=C4C)c(C)c3C=C [protoporphyrin ix] | 1.04 | 0.941 | 1.21 ± 0.082 | 1.65 ± 0.22 |  |  |  |  | 
2 | CCOC(=O)[C@H](CCc1ccccc1)N[C@@H](C)C(=O)N1Cc2ccccc2C[C@H]1C(=O)O [quinapril hydrochloride] | 1.07 | 0.946 | 1 ± 0.022 | 1.01 ± 0.033 |  |  |  |  | 
3 | COCCCOc1ccnc(C[S+]([O-])c2nc3ccccc3[nH]2)c1C (configuration not stated) [rabeprazole sodium] | 1.06 | 0.914 | 0.936 ± 0.049 | 1 ± 0.022 | 0.998 | 1.1 | 1.08 | 1.01 | 0.747
4 | CC(C)N1CCN(c2ccc(OCC3COC(Cn4cncn4)(c4ccc(Cl)cc4Cl)O3)cc2)CC1 (configuration not stated) [terconazole] | 0.387 | 0.269 | 0.9787 ± 0.008 | 0.55 ± 0.032 | 0.77 | 0.76 | 0.728 | 0.568 | 0.403
5 | Clc1ccc(C(Cn2ccnc2)OCc2ccsc2Cl)c(Cl)c1 (configuration not stated) [tioconazole] | 0.341 | 0.284 | 0.8317 ± 0.0059 | 0.473 ± 0.032 | 0.768 | 0.714 | 0.675 | 0.491 | 0.312
6 | C[C@]12C=CC(=O)C=C1CC[C@H]1[C@@H]3C[C@@H](O)[C@](O)(C(=O)CO)[C@@]3(C)C[C@H](O)[C@@]12F [triamcinolone] | 1 | 0.879 | 1.03 ± 0.034 | 1 ± 0.014 |  |  |  |  | 
7 | CC(C)[C@H](N)C(=O)OCCOCn1cnc2c(=O)nc(N)[nH]c21 [valacyclovir hydrochloride] | 1.1 | 0.844 | 1 ± 0.024 | 0.982 ± 0.047 |  |  |  |  | 
8 | Cc1ccc(-c2nc3ccc(C)cn3c2CC(=O)N(C)C)cc1 [zolpidem] | 0.924 | 0.858 | 1.005 ± 0.0066 | 0.981 ± 0.055 |  |  |  |  | 
